Data taken from PubChem BioAssay (NCI).
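48-hour exposure; five concentrations; linearly interpolated endpoints. TGI denotes the concentration required for complete inhibition of growth.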

What was measured:
Test in all cases: inhibition of tumour cell growth, NCI panel, 48 h
[1] = test system: BT-549 breast
[2] = test system: OVCAR-5 ovarian
[3] = test system: SF-539 CNS
[4] = test system: K-562 leukemia
[5] = test system: HS 578T breast
[6] = test system: HOP-92 NSCLC
[7] = test system: IGROV1 ovarian
[8] = test system: HT29 colon
[9] = test system: SN12C renal
[10] = test system: KM12 colon
[11] = test system: NCI-H522 lung
[12] = test system: COLO 205 colon
[13] = test system: RPMI-8226 leukemia
[14] = test system: NCI-H226 lung
[15] = test system: HCT-15 colon
[16] = test system: SW-620 colon
[17] = test system: MALME-3M melanoma
[18] = test system: CAKI-1 renal
[19] = test system: HL-60(TB) leukemia
[20] = test system: UO-31 renal
[21] = test system: UACC-62 melanoma
[22] = test system: SK-MEL-5 melanoma
[23] = test system: OVCAR-8 ovarian
[24] = test system: MDA-N
[25] = test system: LOX IMVI melanoma
[26] = test system: MCF7 breast
[27] = test system: SK-MEL-28 melanoma
[28] = test system: HCC-2998 colon
[29] = test system: MDA-MB-435
[30] = test system: ACHN renal
[31] = test system: NCI-H23 lung
[32] = test system: U251 CNS
[33] = test system: A549 NSCLC
[34] = test system: SNB-19 CNS
[35] = test system: MDA-MB-231 breast
[36] = test system: CCRF-CEM leukemia
[37] = test system: EKVX NSCLC
[38] = test system: MOLT-4 leukemia
[39] = test system: UACC-257 melanoma
[40] = test system: NCI/ADR-RES ovarian
[41] = test system: NCI-H460 lung
[42] = test system: SF-268 CNS
[43] = test system: PC-3 prostate
[44] = test system: A498 renal
[45] = test system: 786-0 renal
[46] = test system: SR leukemia
[47] = test system: HCT-116 colon
[48] = test system: OVCAR-4 ovarian
[49] = test system: TK-10 renal
[50] = test system: M14 melanoma
[51] = test system: SK-MEL-2 melanoma
[52] = test system: RXF 393 renal
[53] = test system: SNB-75 CNS
[54] = test system: SK-OV-3 ovarian
[55] = test system: OVCAR-3 ovarian
[56] = test system: SF-295 CNS
[57] = test system: HOP-62 NSCLC
[58] = test system: DU-145 prostate

CC(C)C1(Cl)CCC2C3(C)CCCC(C)(C(=O)O)C3CC(Cl)C2(Cl)C1Cl (stereo not given)
TGI [1]: > 100 µM | TGI [2]: 94.7 µM | TGI [3]: 46.5 µM | TGI [4]: > 100 µM | TGI [5]: > 100 µM | TGI [6]: > 100 µM | TGI [7]: > 100 µM | TGI [8]: 50.4 µM | TGI [9]: > 100 µM | TGI [10]: 37.7 µM | TGI [11]: > 100 µM | TGI [12]: 37.2 µM | TGI [13]: 62.7 µM | TGI [14]: 78.6 µM | TGI [15]: > 100 µM | TGI [16]: > 100 µM | TGI [17]: > 100 µM | TGI [18]: > 100 µM | TGI [19]: 62.6 µM | TGI [20]: > 100 µM | TGI [21]: 84.4 µM | TGI [22]: 82.5 µM | TGI [23]: > 100 µM | TGI [24]: > 100 µM | TGI [25]: > 100 µM | TGI [26]: > 100 µM | TGI [27]: 72.1 µM | TGI [28]: 81.9 µM | TGI [29]: 62.3 µM | TGI [30]: > 100 µM | TGI [31]: > 100 µM | TGI [32]: 62.5 µM | TGI [33]: > 100 µM | TGI [34]: > 100 µM | TGI [35]: > 100 µM | TGI [36]: > 100 µM | TGI [37]: 91.3 µM | TGI [38]: > 100 µM | TGI [39]: > 100 µM | TGI [40]: > 100 µM | TGI [41]: 75.2 µM | TGI [42]: > 100 µM | TGI [43]: > 100 µM | TGI [44]: > 100 µM | TGI [45]: > 100 µM | TGI [46]: > 100 µM | TGI [47]: > 100 µM | TGI [48]: 84 µM | TGI [49]: > 100 µM | TGI [50]: > 100 µM | TGI [51]: > 100 µM

CC(OC(C)(C)C)[C@H](NC(=O)OCc1ccccc1)C(=O)NC(OCc1ccccc1)[C@H]1COC(C)(C)O1 (stereo not given in full)
TGI [1]: > 10 µM | TGI [2]: > 10 µM | TGI [3]: > 10 µM | TGI [4]: > 10 µM | TGI [5]: > 10 µM | TGI [6]: > 10 µM | TGI [7]: > 10 µM | TGI [8]: > 10 µM | TGI [9]: > 10 µM | TGI [10]: > 10 µM | TGI [11]: > 10 µM | TGI [52]: > 100 µM | TGI [12]: > 10 µM | TGI [53]: > 10 µM | TGI [14]: > 10 µM | TGI [15]: > 10 µM | TGI [16]: > 10 µM | TGI [17]: > 10 µM | TGI [18]: > 10 µM | TGI [19]: > 10 µM | TGI [54]: > 10 µM | TGI [20]: > 10 µM | TGI [21]: > 10 µM | TGI [22]: > 10 µM | TGI [23]: > 10 µM | TGI [24]: > 10 µM | TGI [25]: > 10 µM | TGI [27]: > 100 µM | TGI [28]: > 10 µM | TGI [29]: > 10 µM | TGI [30]: > 10 µM | TGI [31]: > 10 µM | TGI [32]: > 10 µM | TGI [33]: > 100 µM | TGI [34]: > 10 µM | TGI [35]: > 10 µM | TGI [36]: > 10 µM | TGI [55]: > 10 µM | TGI [37]: > 10 µM | TGI [38]: > 10 µM | TGI [56]: > 10 µM | TGI [57]: > 10 µM | TGI [39]: > 10 µM | TGI [40]: > 10 µM | TGI [41]: > 10 µM | TGI [58]: > 100 µM | TGI [42]: > 100 µM | TGI [43]: > 10 µM | TGI [44]: > 10 µM | TGI [45]: > 10 µM | TGI [47]: > 100 µM | TGI [48]: > 10 µM | TGI [49]: > 10 µM | TGI [50]: > 10 µM | TGI [51]: > 10 µM

CC1CC(NN)=Nc2ccccc2N1 (stereo not given)
TGI [1]: > 100 µM | TGI [2]: > 100 µM | TGI [4]: > 100 µM | TGI [5]: > 100 µM | TGI [7]: > 100 µM | TGI [8]: > 100 µM | TGI [9]: > 100 µM | TGI [10]: > 100 µM | TGI [11]: > 100 µM | TGI [12]: > 100 µM | TGI [13]: > 100 µM | TGI [14]: > 100 µM | TGI [15]: > 100 µM | TGI [16]: > 100 µM | TGI [17]: > 100 µM | TGI [18]: > 100 µM | TGI [19]: > 100 µM | TGI [54]: > 100 µM | TGI [20]: > 100 µM | TGI [21]: > 100 µM | TGI [22]: > 100 µM | TGI [23]: > 100 µM | TGI [24]: > 100 µM | TGI [27]: > 100 µM | TGI [29]: > 100 µM | TGI [30]: > 100 µM | TGI [31]: > 100 µM | TGI [32]: > 100 µM | TGI [33]: > 100 µM | TGI [34]: > 100 µM | TGI [35]: > 100 µM | TGI [36]: > 100 µM | TGI [55]: > 100 µM | TGI [37]: > 100 µM | TGI [38]: > 100 µM | TGI [56]: > 100 µM | TGI [57]: > 100 µM | TGI [39]: > 100 µM | TGI [40]: > 100 µM | TGI [41]: > 100 µM | TGI [58]: > 100 µM | TGI [42]: > 100 µM | TGI [43]: > 100 µM | TGI [44]: > 100 µM | TGI [45]: > 100 µM | TGI [47]: > 100 µM | TGI [48]: > 100 µM | TGI [49]: > 100 µM | TGI [50]: > 100 µM | TGI [51]: > 100 µM

COC(=O)C1(C(=O)OC)CC(=O)c2c(OC(=O)c3cccc(OC)c3C#N)ccc(OC(=O)c3cccc(OC)c3C#N)c2C1
TGI [2]: > 100 µM | TGI [3]: > 100 µM | TGI [4]: > 100 µM | TGI [5]: > 100 µM | TGI [6]: > 100 µM | TGI [7]: > 100 µM | TGI [8]: > 100 µM | TGI [9]: > 100 µM | TGI [10]: > 100 µM | TGI [11]: > 100 µM | TGI [52]: > 100 µM | TGI [12]: > 100 µM | TGI [53]: > 100 µM | TGI [13]: > 100 µM | TGI [14]: > 100 µM | TGI [15]: > 100 µM | TGI [16]: > 100 µM | TGI [17]: > 100 µM | TGI [18]: > 100 µM | TGI [19]: > 100 µM | TGI [54]: > 100 µM | TGI [20]: > 100 µM | TGI [21]: > 100 µM | TGI [22]: > 100 µM | TGI [23]: > 100 µM | TGI [24]: > 100 µM | TGI [25]: > 100 µM | TGI [26]: > 100 µM | TGI [27]: > 100 µM | TGI [28]: > 100 µM | TGI [29]: > 100 µM | TGI [30]: > 100 µM | TGI [31]: > 100 µM | TGI [32]: > 100 µM | TGI [33]: > 100 µM | TGI [34]: > 100 µM | TGI [35]: > 100 µM | TGI [36]: > 100 µM | TGI [55]: > 100 µM | TGI [37]: > 100 µM | TGI [38]: > 100 µM | TGI [56]: > 100 µM | TGI [57]: > 100 µM | TGI [39]: > 100 µM | TGI [40]: > 100 µM | TGI [41]: > 100 µM | TGI [58]: > 100 µM | TGI [42]: > 100 µM | TGI [43]: > 100 µM | TGI [44]: > 100 µM | TGI [45]: > 100 µM | TGI [46]: > 100 µM | TGI [47]: > 100 µM | TGI [48]: > 100 µM | TGI [49]: > 100 µM | TGI [50]: > 100 µM

NC(=O)C(N)CC12CC3CC(CC(C3)C1)C2 (stereo not given)
TGI [2]: 42.4 µM | TGI [4]: > 100 µM | TGI [5]: 42.6 µM | TGI [6]: 30.4 µM | TGI [8]: 72.6 µM | TGI [9]: 41.2 µM | TGI [10]: 47.8 µM | TGI [11]: 44.4 µM | TGI [52]: 32.5 µM | TGI [53]: > 100 µM | TGI [13]: 47.3 µM | TGI [15]: > 100 µM | TGI [16]: > 100 µM | TGI [18]: > 100 µM | TGI [54]: > 100 µM | TGI [20]: 44.2 µM | TGI [21]: 28.3 µM | TGI [22]: 28.5 µM | TGI [23]: 65.4 µM | TGI [24]: 28.7 µM | TGI [25]: 29.9 µM | TGI [26]: 44.9 µM | TGI [27]: 55.4 µM | TGI [28]: 49.3 µM | TGI [29]: 44 µM | TGI [30]: > 100 µM | TGI [31]: 51.7 µM | TGI [32]: 34.7 µM | TGI [33]: > 100 µM | TGI [34]: 54.6 µM | TGI [35]: 41.7 µM | TGI [36]: 63.7 µM | TGI [37]: 97.5 µM | TGI [38]: 58.1 µM | TGI [56]: 54.9 µM | TGI [39]: 76.7 µM | TGI [40]: 91.7 µM | TGI [41]: > 100 µM | TGI [58]: 33.7 µM | TGI [42]: 92.5 µM | TGI [43]: 51.9 µM | TGI [45]: 40.7 µM | TGI [46]: 43.5 µM | TGI [47]: 30.7 µM | TGI [48]: 64.7 µM | TGI [49]: 85.3 µM | TGI [50]: 37.4 µM | TGI [51]: 55 µM
